{"source": "paper PMC6149922", "about": "“2-Substituted Aniline as a Simple Scaffold for LuxR-Regulated QS Modulation” (Molecules : A Journal of Synthetic Chemistry and Natural …, 2017)", "target": "T1, LuxR (Aliivibrio fischeri, UniProt P12746)", "T1 sequence (P12746 1-250)": "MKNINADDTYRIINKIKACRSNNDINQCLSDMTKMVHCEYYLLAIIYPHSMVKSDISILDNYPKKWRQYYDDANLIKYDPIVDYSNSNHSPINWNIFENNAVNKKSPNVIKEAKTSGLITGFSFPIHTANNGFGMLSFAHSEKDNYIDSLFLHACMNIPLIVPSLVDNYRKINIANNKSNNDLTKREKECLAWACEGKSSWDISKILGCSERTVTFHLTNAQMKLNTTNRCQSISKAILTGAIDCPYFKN", "test": "antagonism of […] 3-oxo-C6-HSL-induced bioluminescence, recombinant E. coli NM522 pSB401 LuxR biosensor", "format": "cell-based", "data": [{"smiles": "CCCCCC(=O)Nc1ccccc1[N+](=O)[O-]", "note": "[compound 2, N-(2-nitrophenyl)hexanamide]", "values": [{"measurement": "IC50", "result": 94, "unit": "µM"}]}, {"smiles": "CCCC(=O)Nc1ccccc1[N+](=O)[O-]", "note": "[compound 1, N-(2-nitrophenyl)butanamide]", "values": [{"measurement": "IC50", "result": 58, "unit": "µM"}]}, {"smiles": "CCCCCC(=O)Nc1ccccc1", "note": "[compound 12, N-Phenylhexanamide]", "values": [{"measurement": "IC50", "result": 79, "unit": "µM"}]}]}
